Usually refractive index stands for the speed of light in vacuum divided by its phase velocity in the sample. By mass density is commonly meant mass per unit of volume.

Numbers after ± are expanded uncertainties.

Data set [1] in a line: refractive index (Na D-line) (dimensionless). The settings on record: 298.15 K; 101.33 kPa; Liquid; Standard Abbe refractometry.
The conditions of data set [2]: 298.15 K; 101.33 kPa; Liquid; Vibrating tube method.

As to `COS(=O)(=O)[O-].Cn1cc[n+](C)c1` [1,3-dimethylimidazolium methylsulfate], the refractive index in data set [1] worked out at 1.48276 ± 0.00069. Besides, in data set [2], the mass density amounted to 1327.3 ± 3.8 kg/m3.

In the case of `CCCCn1cc[n+](C)c1.COS(=O)(=O)[O-]` [1-butyl-3-methylimidazolium methyl sulfate], the refractive index in data set [1] is recorded as 1.47948 ± 0.00053. The mass density in data set [2] is 1212.3 ± 2.5 kg/m3.

As to `CCn1cc[n+](C)c1.COS(=O)(=O)[O-]` [1-ethyl-3-methylimidazolium methylsulfate], the refractive index in data set [1] is 1.479 ± 0.0005. For the same molecule, the mass density in data set [2] was found to be 1277.4 ± 2.6 kg/m3.

For the molecule `CCCCCCCCCCCC` [dodecane], the refractive index in data set [1] was 1.41992 ± 0.0004. Further, the mass density in data set [2] was determined as 745.2 ± 2.1 kg/m3.

With `CCO` [ethanol], the refractive index in data set [1] came to 1.35932 ± 0.00035. In addition, the mass density in data set [2] stood at 785.1 ± 2.1 kg/m3.

Turning to `CCOC(C)=O` [ethyl acetate], the refractive index in data set [1] was 1.36975 ± 0.00035. The mass density in data set [2] came out at 894.5 ± 2.1 kg/m3.

For the molecule `CC(C)O` [propan-2-ol], the refractive index in data set [1] was determined as 1.37499 ± 0.00035. Besides, the mass density in data set [2] is reported as 780.9 ± 2.1 kg/m3.

Source of the values: the NIST ThermoML archive (doi:10.1016/j.jct.2014.09.009).
